Measurements taken from ChEMBL document CHEMBL4627367, “Structure-based design and synthesis of novel furan-diketopiperazine-type derivatives as potent microtubule inhibitors for treating cancer” (Bioorg Med Chem, 2020).
Active and inactive are the calls of the source. The rule behind the calls is not given here.

Columns and labels:
[1] = test system: NCI-H460; experiment: Cytotoxicity against human NCI-H460 cells assessed as reduction in cell viability after 72 hrs by MTT assay; format: functional, cell-based; conditions: NCI-H460, 72 h
[2] = test system: BXPC-3; experiment: Cytotoxicity against human BxPC3 cells assessed as reduction in cell viability incubated for 72 hrs by MTT assay; format: functional, cell-based; conditions: BXPC-3, 72 h
[3] = test system: HT-29; experiment: Cytotoxicity against human HT-29 cells assessed as reduction in cell viability after 72 hrs by MTT assay; format: functional, cell-based; conditions: HT-29, 72 h
[4] = target: T1, Tubulin (Homo sapiens) (UniProt P68371+Q9H4B7+P0DPH7+P68366+Q13509+Q71U36+P04350+Q3ZCM7+P07437+P68363+Q9BQE3+Q6PEY2+Q13885+Q9BVA1+Q9BUF5); experiment: Inhibition of tubulin in human NCI-H460 cells assessed as inhibition of microtubule polymerization at 10 nM after 24 hrs by immunofluorescence assay; format: cell-based
[5] = target: T1, Tubulin (Homo sapiens); experiment: Inhibition of tubulin in human NCI-H460 cells assessed as inhibition of microtubule polymerization at 2 nM after 24 hrs by immunofluorescence assay; format: cell-based

`Cc1ccc(/C=c2\[nH]c(=O)/c(=C/c3cccc(Oc4ccc(F)cc4)c3)[nH]c2=O)o1` showed an IC50 [1] of 30 nM.
With `O=c1[nH]/c(=C\c2ccccn2)c(=O)[nH]/c1=C\c1cccc(Oc2ccc(F)cc2)c1` the IC50 [1] was 49.1 nM.
In the case of `O=c1[nH]/c(=C\c2nc3ccccc3[nH]2)c(=O)[nH]/c1=C\c1cccc(Oc2ccc(F)cc2)c1`, the IC50 [1] is reported as over 1000 nM.
For `Cc1[nH]cnc1/C=c1\[nH]c(=O)/c(=C/c2cccc(C(=O)c3ccc(F)cc3)c2)[nH]c1=O`, the IC50 [1] was 15.9 nM.
`COCc1ccc(/C=c2\[nH]c(=O)/c(=C/c3cccc(Oc4ccc(F)cc4)c3)[nH]c2=O)o1` was tested, and the IC50 [1] was 14 nM, the IC50 [2] was 6.6 nM and the IC50 [3] was 7 nM. The inhibition [4] was “Active”.
For `O=c1[nH]/c(=C\C2CCCCC2)c(=O)[nH]/c1=C\c1cccc(Oc2ccc(F)cc2)c1`, the IC50 [1] was over 1000 nM.
`O=C(c1ccc(F)cc1)c1cccc(/C=c2\[nH]c(=O)/c(=C/c3nc[nH]c3C3CC3)[nH]c2=O)c1` was tested, and the IC50 [1] was 2.8 nM, the IC50 [2] was 1.4 nM and the IC50 [3] was 1.4 nM.
`Cc1ccc(/C=c2\[nH]c(=O)/c(=C/c3cccc(C(=O)c4ccc(F)cc4)c3)[nH]c2=O)o1` gave an IC50 [1] of 5.3 nM, an IC50 [2] of 3.7 nM and an IC50 [3] of 3.3 nM.
In the case of `CC(C)(C)c1[nH]cnc1/C=c1\[nH]c(=O)/c(=C/c2cccc(C(=O)c3ccc(F)cc3)c2)[nH]c1=O`, the IC50 [2] is reported as 0.6 nM, the IC50 [3] is reported as 0.6 nM and the inhibition [5] is reported as “Active”.
`O=c1[nH]/c(=C\c2ccc([N+](=O)[O-])o2)c(=O)[nH]/c1=C\c1cccc(Oc2ccc(F)cc2)c1` gave an IC50 [1] of over 1000 nM.
`O=c1[nH]/c(=C\c2ccc(Br)o2)c(=O)[nH]/c1=C\c1cccc(Oc2ccc(F)cc2)c1` showed an IC50 [1] of 361 nM.
Work on `O=c1[nH]/c(=C\c2ccco2)c(=O)[nH]/c1=C\c1cccc(Oc2ccc(F)cc2)c1` yielded an IC50 [1] of 154 nM.
`O=c1[nH]/c(=C\c2nc[nH]c2C2CC2)c(=O)[nH]/c1=C\c1cccc(Oc2ccc(F)cc2)c1` gave an IC50 [1] of 15.2 nM, an IC50 [2] of 9.4 nM and an IC50 [3] of 7.4 nM.
`O=c1[nH]/c(=C\c2cccc(Oc3ccc(F)cc3)c2)c(=O)[nH]/c1=C\c1ccccc1` gave an IC50 [1] of 389 nM.
Molecule `Cc1[nH]cnc1/C=c1\[nH]c(=O)/c(=C/c2cccc(Oc3ccc(F)cc3)c2)[nH]c1=O` has an IC50 [1] of 47.6 nM.
In the case of `CC(C)(C)c1[nH]cnc1/C=c1\[nH]c(=O)/c(=C/c2cccc(Oc3ccc(F)cc3)c2)[nH]c1=O`, the IC50 [2] is reported as 3.2 nM, the IC50 [3] is reported as 2.1 nM and the inhibition [4] is reported as “Active”.
Molecule `O=c1[nH]/c(=C\c2cccc(Oc3ccc(F)cc3)c2)c(=O)[nH]/c1=C\c1cccnc1` has an IC50 [1] of over 1000 nM.
`O=c1[nH]/c(=C\c2ccc(Cl)o2)c(=O)[nH]/c1=C\c1cccc(Oc2ccc(F)cc2)c1` gave an IC50 [1] of 180 nM.
Work on `COCc1ccc(/C=c2\[nH]c(=O)/c(=C/c3cccc(C(=O)c4ccc(F)cc4)c3)[nH]c2=O)o1` yielded an IC50 [1] of 2.9 nM, an IC50 [2] of 2 nM and an IC50 [3] of 2.2 nM. The inhibition [4] was “Active”.
With `CC(C)c1[nH]cnc1/C=c1\[nH]c(=O)/c(=C/c2cccc(C(=O)c3ccc(F)cc3)c2)[nH]c1=O` the IC50 [1] was 3.2 nM, the IC50 [2] was 0.6 nM and the IC50 [3] was 0.8 nM. For the same molecule, the inhibition [4] was “Active”.
In the case of `O=c1[nH]/c(=C\c2c[nH]cn2)c(=O)[nH]/c1=C\c1cccc(Oc2ccc(F)cc2)c1`, the IC50 [1] is reported as 478 nM.
With `O=C(c1ccc(F)cc1)c1cccc(/C=c2\[nH]c(=O)/c(=C/c3c[nH]cn3)[nH]c2=O)c1` the IC50 [1] was 278 nM, the IC50 [2] was 4.3 nM and the IC50 [3] was 5.1 nM.
In the case of `O=c1[nH]/c(=C\c2cccs2)c(=O)[nH]/c1=C\c1cccc(Oc2ccc(F)cc2)c1`, the IC50 [1] is reported as over 1000 nM.
For `O=c1[nH]/c(=C\c2ncc[nH]2)c(=O)[nH]/c1=C\c1cccc(Oc2ccc(F)cc2)c1`, the IC50 [1] was over 1000 nM.
With `O=c1[nH]/c(=C\c2ccc(CO)o2)c(=O)[nH]/c1=C\c1cccc(Oc2ccc(F)cc2)c1` the IC50 [1] was 41.5 nM.
With `CC(C)(C)c1[nH]cnc1/C=c1\[nH]c(=O)/c(=C/c2ccccc2)[nH]c1=O` [PLINABULIN] the IC50 [2] was 5.8 nM, the IC50 [3] was 6.6 nM and the inhibition [4] was “Active”.
`CC(C)c1[nH]cnc1/C=c1\[nH]c(=O)/c(=C/c2cccc(Oc3ccc(F)cc3)c2)[nH]c1=O` showed an IC50 [1] of 8.8 nM, an IC50 [2] of 3.4 nM and an IC50 [3] of 3.7 nM. The inhibition [4] was “Active”.
In the case of `O=c1[nH]/c(=C\c2cc3ccccc3o2)c(=O)[nH]/c1=C\c1cccc(Oc2ccc(F)cc2)c1`, the IC50 [1] is reported as 347 nM.
